From patent US20260042764A1, “COMPOSITIONS AND METHODS FOR INHIBITION OF KRAS” (TheRas, Inc., priority 2022, published 2026) come the findings set out here.

pIC50: −log10 of the molar value.

The test system of experiment [1] is A549 cells (KRAS G12S). Put plainly: Cell-based pERK HTRF assay in A549 cells (Biological Example 5). The following applies: Homo sapiens. Here is the method: (§1) Biological Example 5: Cell-based PERK HTRF assay in AsPC-1, SW1900, HPAC, Capan-2, RKN, H358, HCT116, KP-2, H1573, A549, MKN1, and HT1080 cells
(§2) The inhibition of ERK phosphorylation, as measured using the HTRF Advanced Phospho-ERK 1/2 (Thr202/Tyr204) Detection Assay kit (Perkin Elmer), was used to determine the effectiveness of test compounds in disrupting KRAS-driven protein/effector signaling in cells.
(§3) On day 1, cells were seeded into 96-well plates at 2.5×10^4 cells/well in 100 μL of complete growth media supplemented with 10% fetal bovine serum (FBS) and incubated at 37° C., in the presence of 5% CO2.
(§4) On day 2, cells were treated with compounds diluted in DMSO at 0.25% final DMSO concentration. Compounds were dosed in a 9-point concentration curve with three-fold dilution between concentrations. Cells were incubated in the presence of compound for two hours at 37° C. Following this treatment period, cells were harvested by aspirating the media, adding 40 μL of kit-supplied 1x lysis buffer per well, and shaking for 30 minutes at 250 rpm at room temperature.
(§5) Following cell lysis, samples were homogenized by pipetting up and down twenty times and 16 μL of cell lysate per well was transferred from the 96-well cell culture plate to two wells of a 384-well detection plate. A complete detection buffer was prepared by diluting D2 and Eu Cryptate antibodies 1:20 in kit-provided detection solution, 4 μL of complete detection buffer was then added to each well with lysate. Plates were incubated with gentle rocking for 24 hours at 4° C.
(§6) Following this incubation period, plates were centrifuged at 500×g for one minute and analyzed on a CLARIOstar plate reader. Data was imported into Microsoft Excel and the signal from the 665 nm channel was divided by the signal from the 620 nm channel. % pERK was calculated as: […]
(§7) Data was imported to the Prism software package (Graphpad) and EC50 values were calculated using the log (inhibitor) vs, response—variable slopc (Four parameters) model.
In general terms: TR-FRET usually uses a lanthanide donor and a delayed reading to cut background.

Experiment [2] has as its system SW1900 cells (KRAS G12D). Description: Cell-based pERK HTRF assay in SW1900 cells (Biological Example 5). Here is the method:
as §1, §2, §3, §4, §5, §6, §7

The test system of experiment [3] is HT1080 cells (NRAS). Put plainly: 3D Cell viability assay in HT1080 cells (Biological Example 6). It is filed as cell-based. The following applies: Homo sapiens, HT-1080; HT1080 (NRAS) spheroids, 72 hours. As to the method:
(§8) Biological Example 6: 3D Cell viability assay in AsPC-1, SW1900, HPAC, Capan-2, RKN, H358, HCT116, KP-2, H1573, A549, MKN1, and HT1080 cells
(§9) The inhibition of cellular viability as a result of test compound treatment in a spheroid assay was measured using the CellTiter-Glow 3D Cell Viability Assay (Promega).
(§10) On Day 1, 1000 cells per well were seeded in 150 μL of complete growth media supplemented with 10% fetal bovine serum (FBS) and incubated at 37° C., in the presence of 5% CO2 in 96-well ultra-low attachment microplates (Corning) for 48 hours undisturbed to allow spheroids to form.
(§11) Following spheroid formation, cells were treated with compounds diluted in DMSO at 0.25% final DMSO concentration. Compounds were dosed in a 9-point concentration curve with three-fold dilution between concentrations. Cells were incubated in the presence of compound for 72 hours at 37° C., in the presence of 5% CO2.
(§12) Following this incubation period, the kit-provided CTG reagent was allowed to equilibrate for 30 minutes at room temperature, 150 μL of equilibrated CTG reagent was added to each well, and the plate was sealed before shaking at 250 rpm for 10 minutes at room temperature to lyse the cells, 150 μL of lysate per well was transferred to a 96-well plate and luminescence was read on a CLARIOstar plate reader.
(§13) Data was imported into the Prism software package (Graphpad) and EC50 values were calculated using the log (inhibitor) vs, response—variable slope (Four parameters) model.

Another experiment relates to HPAC cells (KRAS G12D). Description: 3D Cell viability assay in HPAC cells (Biological Example 6). The format is cell-based. To be noted: HPAC (KRAS G12D) spheroids. Here is the method: as §8, §9, §10, §11, §12, §13
In experiment [4] the test system is A549 cells (KRAS G12S). Put plainly: 3D Cell viability assay in A549 cells (Biological Example 6). The format is cell-based. The following applies: Homo sapiens; A549 (KRAS G12S) spheroids, 72 hours. As to the method: as §8, §9, §10, §11, §12, §13
Experiment [5] concerns HCT116 cells (KRAS G13D). Description: Cell-based pERK HTRF assay in HCT116 cells (Biological Example 5). As to the method: as §1, §2, §3, §4, §5, §6, §7
Experiment [6] deals with HT1080 cells (NRAS). Description: Cell-based pERK HTRF assay in HT1080 cells (Biological Example 5). The following applies: Homo sapiens, HT-1080. As to the method:
as §1, §2, §3, §4, §5, §6, §7

The test system of experiment [7] is HCT116 cells (KRAS G13D). Description: 3D Cell viability assay in HCT116 cells (Biological Example 6). The format is cell-based. The following applies: HCT116 (KRAS G13D) spheroids, 72 hours. As to the method: as §8, §9, §10, §11, §12, §13
The test system of experiment [8] is SW1900 cells (KRAS G12D). Description: 3D Cell viability assay in SW1900 cells (Biological Example 6). The following applies: SW1990 (text: SW1900, KRAS G12D) spheroids, 72 hours. It is filed as cell-based. As to the method:
as §8, §9, §10, §11, §12, §13

The subject of experiment [9] is H1573 cells (KRAS G12A). Description: Cell-based pERK HTRF assay in H1573 cells (Biological Example 5). The following applies: Homo sapiens, NCI-H1573. Here is the method: as §1, §2, §3, §4, §5, §6, §7
Experiment [10] deals with H1573 cells (KRAS G12A). Put plainly: 3D Cell viability assay in H1573 cells (Biological Example 6). The format is cell-based. To be noted: Homo sapiens, NCI-H1573; H1573 (KRAS G12A) spheroids, 72 hours. As to the method: as §8, §9, §10, §11, §12, §13
Experiment [11] concerns Capan-2 cells (KRAS G12V). Put plainly: Cell-based pERK HTRF assay in Capan-2 cells (Biological Example 5). As to the method: as §1, §2, §3, §4, §5, §6, §7
Experiment [12] has as its system MKN1 cells (KRAS amplification). Description: Cell-based pERK HTRF assay in MKN1 cells (Biological Example 5). As to the method: as §1, §2, §3, §4, §5, §6, §7
A further experiment concerns AsPC-1 cells (KRAS G12D). Put plainly: Cell-based pERK HTRF assay in AsPC-1 cells (Biological Example 5). To be noted: Homo sapiens, ASPC1, AsPC-1 (KRAS G12D) cells. As to the method:
as §1, §2, §3, §4, §5, §6, §7

Experiment [13] deals with Capan-2 cells (KRAS G12V). Description: 3D Cell viability assay in Capan-2 cells (Biological Example 6). It is filed as cell-based. To be noted: Capan-2 (KRAS G12V) spheroids, 72 hours. Here is the method: as §8, §9, §10, §11, §12, §13
The test system of experiment [14] is RKN cells (KRAS G12V). Put plainly: Cell-based pERK HTRF assay in RKN cells (Biological Example 5). Here is the method: as §1, §2, §3, §4, §5, §6, §7
Experiment [15] relates to RKN cells (KRAS G12V). Put plainly: 3D Cell viability assay in RKN cells (Biological Example 6). The format is cell-based. To be noted: RKN (KRAS G12V) spheroids, 72 hours. As to the method:
as §8, §9, §10, §11, §12, §13

[16] abbreviates: Homo sapiens, SW1990, SW1990 cells (text: SW1900, KRAS G12D).
[17] abbreviates: Homo sapiens, Capan-2, Capan-2 (KRAS G12V) cells.
The mark [18] stands for this setting: Homo sapiens, MKN-1, MKN cells (MKN1, KRAS amplification).

By pIC50 is commonly meant the negative decadic logarithm of the IC50, by convention in mol/L.

Take `N#Cc1c(N)sc2c(F)ccc(-c3c(C(F)(F)F)cc4c(N5CCCOCC5)nc(OC[C@@]56CCCN5C[C@H](F)C6)nc4c3F)c12` [Compound 232]: the negative-log IC50 (pIC50) in the experiment on A549 cells (KRAS G12S) [1] is 6.00 to 7.00; in the experiment on SW1900 cells (KRAS G12D) [2] (setting [16]), no less than 7.00; in the experiment with HT1080 cells (NRAS) [3], less than 6.00; in the experiment on HPAC cells (KRAS G12D) (Homo sapiens, HPAC, 72 h), less than 6.00; in the experiment with A549 cells (KRAS G12S) [4] it was no less than 7.00; in the experiment with HCT116 cells (KRAS G13D) [5] (Homo sapiens, HCT-116) it was no less than 7.00. Moreover, the pIC50 was less than 6.00 with HT1080 cells (NRAS) [6]; no less than 7.00 in the experiment with HCT116 cells (KRAS G13D) [7] (Homo sapiens, HCT-116); no less than 7.00 in the experiment with SW1900 cells (KRAS G12D) [8] (Homo sapiens); no less than 7.00 in the experiment with H1573 cells (KRAS G12A) [9]; no less than 7.00 in the experiment on H1573 cells (KRAS G12A) [10]; no less than 7.00 in [11] (setting [17]).
Consider `C[C@@H]1[C@H](N(C)c2nc(OC[C@@]34CCCN3C[C@H](F)C4)nc3c(F)c(-c4ccc(F)c5sc(N)c(C#N)c45)c(C(F)(F)F)cc23)CCN1C(=O)C1CC1` [Compound 258], for which the negative-log IC50 (pIC50) in the experiment with A549 cells (KRAS G12S) [1] is no less than 7.00; in the experiment on SW1900 cells (KRAS G12D) [2] (setting [16]) it was no less than 7.00; in the experiment on HT1080 cells (NRAS) [3] it was less than 6.00; in the experiment with HPAC cells (KRAS G12D) (Homo sapiens, HPAC, 72 h), 6.00 to 7.00; in the experiment with A549 cells (KRAS G12S) [4] it was no less than 7.00; in the experiment on HCT116 cells (KRAS G13D) [5] (Homo sapiens, HCT-116), no less than 7.00. The negative-log IC50 (pIC50) with HT1080 cells (NRAS) [6] is less than 6.00; in [12] (setting [18]), no less than 7.00; with HCT116 cells (KRAS G13D) [7] (Homo sapiens, HCT-116) it was 6.00 to 7.00; in the experiment on SW1900 cells (KRAS G12D) [8] (Homo sapiens) it was no less than 7.00; with H1573 cells (KRAS G12A) [9] it was no less than 7.00; in the experiment on H1573 cells (KRAS G12A) [10], no less than 7.00.
In the case of `CN(Cc1cccnc1N)c1nc(OC[C@@]23CCCN2C[C@H](F)C3)nc2c(F)c(-c3ccc(F)c4sc(N)c(C#N)c34)c(C(F)(F)F)cc12` [Compound 390], the pIC50 is no less than 7.00 with AsPC-1 cells (KRAS G12D); no less than 7.00 in the experiment with A549 cells (KRAS G12S) [1]; no less than 7.00 in the experiment on SW1900 cells (KRAS G12D) [2] (setting [16]); less than 6.00 in the experiment on HT1080 cells (NRAS) [3]; 6.00 to 7.00 in the experiment with HPAC cells (KRAS G12D) (Homo sapiens, HPAC, 72 h); less than 6.00 in the experiment with HT1080 cells (NRAS) [6]. Moreover, the negative-log IC50 (pIC50) in experiment [13] (Homo sapiens) is no less than 7.00; in experiment [12] (setting [18]), no less than 7.00; in the experiment with HCT116 cells (KRAS G13D) [7] (Homo sapiens, HCT-116), 6.00 to 7.00; with SW1900 cells (KRAS G12D) [8] (Homo sapiens), no less than 7.00; in experiment [11] (setting [17]) it was no less than 7.00.
Consider `CCN(c1nc(OCC23CCCN2CC(F)C3)nc2c(F)c(-c3ccc(F)c4sc(N)c(C#N)c34)c(C(F)(F)F)cc12)C1CC(C)N(C(=O)C2CC2(F)F)C1` (stereo not drawn) [Compound 732], for which the pIC50 in the experiment on SW1900 cells (KRAS G12D) [2] (SW1990 cells (text: SW1900, KRAS G12D)) is no less than 7.00; in the experiment with HPAC cells (KRAS G12D) (72 hours) it was no less than 7.00; in the experiment with HCT116 cells (KRAS G13D) [5] it was no less than 7.00; in the experiment on RKN cells (KRAS G12V) [14] it was no less than 7.00; in experiment [13] it was no less than 7.00; in [12] (MKN cells (MKN1, KRAS amplification)) it was no less than 7.00. Further, the negative logarithm of the IC50 (pIC50) is 6.00 to 7.00 in the experiment with HCT116 cells (KRAS G13D) [7], no less than 7.00 in the experiment on SW1900 cells (KRAS G12D) [8], no less than 7.00 with RKN cells (KRAS G12V) [15] and no less than 7.00 in experiment [11] (Capan-2 (KRAS G12V) cells).
